The nature of data set [1]: Metabolic stability in human liver microsomes. The following applies: for difference in half-life and intrinsic clearance compared with the non-deuterated methylone hydrochloride: human liver microsomes; for half-life at 1 μM / microsomal CLint at 1 μM: pooled liver microsomes, pH 7.4, human liver microsomes 0.5 mg/mL, 1 μM compound, NADPH, 0-45 min. The data set is classed as in vitro ADME. As to the method: Pooled liver microsomes are purchased from a reputable commercial supplier. Microsomes are stored at […] prior to use. Microsomes (final protein concentration 0.5 mg/mL), 0.1 M phosphate buffer pH 7.4 and test compound (final substrate concentration 1 μM; final DMSO concentration 0.25%) are preincubated at 37° C. prior to the addition of NADPH (final concentration 1 mM) to initiate the reaction. A minus cofactor control incubation is included for each compound tested where 0.1 M phosphate buffer pH 7.4 is added instead of NADPH (minus NADPH). Two control compounds are included with each species. All incubations are performed singularly for each test compound. Each compound is incubated for 0, 5, 15, 30 and 45 min. The control (minus NADPH) is incubated for 45 min only. The reactions are stopped by transferring incubate into acetonitrile at the appropriate time points, in a 1:3 ratio. The termination plates are centrifuged at 3,000 rpm for 20 min at 4° C. to precipitate the protein.
From a plot of ln peak area ratio (compound peak area/internal standard peak area) against time, the gradient of the line is determined. Subsequently, half-life and intrinsic clearance are calculated using the equations below:
where V=Incubation volume (μL)/Microsomal protein (mg)
Relevant control compounds were assessed, ensuring intrinsic clearance values fall within the specified limits (if available).

For data set [2] the following is noted: cited from earlier work.
Another data set concerns C57/BL6J mice. The data set can be described thus: Forced swim test (FST). The data set is classed as in vivo, mouse. The following applies: 24 h after administration. As to the method:
As increased cortical structural plasticity in the anterior parts of the brain mediates the sustained (>24 h) antidepressant-like effects of ketamine and play a role in the therapeutic effects of 5-HT2A agonists, the impact of the present compounds on forced swim test (FST) behavior is evaluated. First, a pretest is used to induce a depressive phenotype. Compounds are administered 24 h after the pre-test, and the FST is performed 24 h and 7 d post compound administration.
Male C57/BL6J mice (9-10 weeks old at time of experiment) are obtained. After 1 week in the vivarium each mouse is handled for approximately 1 minute by the experimenter for 3 consecutive days leading up to the first FST. All experiments are carried out by the same experimenter who performs handling. During the FST, mice undergo a 6 min swim session in a clear Plexiglas cylinder 40 cm tall, 20 cm in diameter, and filled with 30 cm of 24±1° C. water. […] Immobility scores for all mice are determined after the pre-test and mice are randomly assigned to treatment groups to generate groups with similar average immobility scores to be used for the following two FST sessions. […] Experiments are video-recorded and manually scored offline. Immobility time—defined as passive floating or remaining motionless with no activity other than that needed to keep the mouse's head above water—is scored for the last 4 min of the 6 min trial.

In the case of `Cl.[2H]C1([2H])Oc2ccc(C(=O)C(C)NC)cc2O1` (racemic) [(rac)-Methylone-d2 hydrochloride, 1-(benzo[d][1,3]dioxol-5-yl-2,2-d2)-2-((methyl)amino)propan-1-one HCl], in data set [1], the “difference in half-life and intrinsic clearance compared with the non-deuterated methylone hydrochloride” value is “demonstrated differences in half-life and intrinsic clearance”; the half-life at 1 μM turned out to be 147 min; the microsomal CLint at 1 μM worked out at 9.46 µL/min/mg.

With `Cl.[2H]C([2H])([2H])NC(C)C(=O)c1ccc2c(c1)OCO2` (racemic) [(rac)-Methylone-d3 hydrochloride, 1-(benzo[d][1,3]dioxol-5-yl)-2-((methyl-d3)amino)propan-1-one HCl], in data set [1], the “difference in half-life and intrinsic clearance compared with the non-deuterated methylone hydrochloride” value was “demonstrated differences in half-life and intrinsic clearance”; the half-life at 1 μM is 173 min; the microsomal CLint at 1 μM came to 8.02 µL/min/mg.

As for `Cl.[2H]C([2H])([2H])NC(C)C(=O)c1ccc2c(c1)OC([2H])([2H])O2` (racemic) [(rac)-Methylone-d5 hydrochloride, 1-(benzo[d][1,3]dioxol-5-yl-2,2-d2)-2-((methyl-d3)amino)propan-1-one HCl], in data set [1], the “difference in half-life and intrinsic clearance compared with the non-deuterated methylone hydrochloride” value is “the most significant difference in half-life and intrinsic clearance”; the half-life at 1 μM is 183 min; the microsomal CLint at 1 μM worked out at 7.59 µL/min/mg.

For `Cl.[2H]C1([2H])Oc2ccc(C(=O)[C@@H](C)NC)cc2O1` [(R)-Methylone-d2 hydrochloride, (R)-1-(benzo[d][1,3]dioxol-5-yl-2,2-d2)-2-((methyl)amino)propan-1-one HCl], in data set [1], the “difference in half-life and intrinsic clearance compared with the non-deuterated methylone hydrochloride” value was “demonstrated differences in half-life and intrinsic clearance”; the half-life at 1 μM turned out to be 198 min; the microsomal CLint at 1 μM amounted to 7 µL/min/mg.

In the case of `Cl.[2H]C([2H])([2H])N[C@H](C)C(=O)c1ccc2c(c1)OCO2` [(R)-Methylone-d3 hydrochloride, (R)-1-(benzo[d][1,3]dioxol-5-yl)-2-((methyl-d3)amino)propan-1-one HCl], in data set [1], the “difference in half-life and intrinsic clearance compared with the non-deuterated methylone hydrochloride” value was “demonstrated differences in half-life and intrinsic clearance”; the half-life at 1 μM was found to be 214 min; the microsomal CLint at 1 μM came to 6.49 µL/min/mg.

As to `Cl.[2H]C([2H])([2H])N[C@H](C)C(=O)c1ccc2c(c1)OC([2H])([2H])O2` [(R)-Methylone-d5 hydrochloride, (R)-1-(benzo[d][1,3]dioxol-5-yl-2,2-d2)-2-((methyl-d3)amino)propan-1-one hydrochloride], in data set [1], the “difference in half-life and intrinsic clearance compared with the non-deuterated methylone hydrochloride” value was “the most significant difference in half-life and intrinsic clearance”; the half-life at 1 μM amounted to 221 min; the microsomal CLint at 1 μM was 6.27 µL/min/mg.

For `Cl.[2H]C1([2H])Oc2ccc(C(=O)[C@H](C)NC)cc2O1` [(S)-Methylone-d2 hydrochloride, (S)-1-(benzo[d][1,3]dioxol-5-yl-2,2-d2)-2-(methylamino)propan-1-one hydrochloride], in data set [1], the “difference in half-life and intrinsic clearance compared with the non-deuterated methylone hydrochloride” value is “demonstrated differences in half-life and intrinsic clearance”; the half-life at 1 μM was determined as 147 min; the microsomal CLint at 1 μM was found to be 9.41 µL/min/mg.

For the compound `Cl.[2H]C([2H])([2H])N[C@@H](C)C(=O)c1ccc2c(c1)OCO2` [(S)-Methylone-d3 hydrochloride, (S)-1-(benzo[d][1,3]dioxol-5-yl)-2-((methyl-d3)amino)propan-1-one HCl], in data set [1], the “difference in half-life and intrinsic clearance compared with the non-deuterated methylone hydrochloride” value is “demonstrated differences in half-life and intrinsic clearance”; the half-life at 1 μM worked out at 144 min; the microsomal CLint at 1 μM was 9.6 µL/min/mg.

As to `Cl.[2H]C([2H])([2H])N[C@@H](C)C(=O)c1ccc2c(c1)OC([2H])([2H])O2` [(S)-Methylone-d5 hydrochloride, (S)-1-(benzo[d][1,3]dioxol-5-yl-2,2-d2)-2-((methyl-d3)amino)propan-1-one hydrochloride], in data set [1], the “difference in half-life and intrinsic clearance compared with the non-deuterated methylone hydrochloride” value was “the most significant difference in half-life and intrinsic clearance”; the half-life at 1 μM was 153 min; the intrinsic metabolic clearance (microsomal CLint) at 1 μM amounted to 9.07 µL/min/mg.

Turning to `CNC(C)C(=O)c1ccc2c(c1)OCO2` (stereo not drawn) [Methylone, 3,4-methylenedioxy-N-methylcathinone], the “Oral Methylone Dose, Drug Activity Level Very Strong” value in data set [2] (oral, modified from WHO 2014) was at least 270 mg. The “effect of re-dose on duration of effects” value in data set [2] (re-dose of one-third to one-half the initial dose, WHO 2014) is “prolongs duration for approximately one hour”.

Consider `CNC1(c2ccccc2Cl)CCCCC1=O` (stereo not drawn) [ketamine], for which the “immobility in forced swim test” value with C57/BL6J mice is reported as “significantly reduced immobility”.
